Measurements published in patent US12115158B2, “Survivin-targeting anti-tumor agents and uses thereof” (Indiana University Research and Technology Corporation, priority 2020, dated 2024).
Entries after “also recorded” stand apart in the source; their conditions may differ. Like-named read-outs stand apart in the source and are kept apart here.

What was measured:
PC-3 = settings: MTT assay; data from the previous study [12]; cited from earlier work
C4-2 cells [1] = assay: Methylene blue survival assay; assay type: cell-based; settings: Homo sapiens, 72-hr treatment
Experimental: (§1) Methylene blue survival assay. Prostate cancer cells were seeded 2000-3500 per well (cell line dependent) and treated with LQZ-7-3 for 72 hours. After 72 hours, media was then removed and cells were fixed with methanol for 30 minutes and subsequently stained with 100 μL of 1% methylene blue (diluted in 10 mM borate buffer) for 1 hour. The cells were then washed 3× with 10 mM borate buffer and then allowed to air dry for 30 minutes. 100 μL of 100% ethanol:0.1 M HCl (1:1) was added to each well to dissolve the methylene blue stain and absorbance was measured via spectrometry at […]. After normalization to DMSO controls, the percent viabilities were graphed and IC50 concentrations were determined using Prism.
(§2) LQZ-7I has enhanced cytotoxicity compared to the parent compound LQZ-7. These five newly synthesized LQZ-7 analogs were first tested for their cytotoxicity against prostate cancer cell lines C4-2 and PC-3 in comparison with their parent compound LQZ-7 using methylene blue assay. […] The other compounds performed worse with higher IC50 compared with LQZ-7.

PC-3 cells [2] = assay: Methylene blue survival assay; assay type: cell-based; settings: Homo sapiens, 72-hr treatment
Experimental: as §1, §2

survivin [3] = biological target: T1, survivin (Homo sapiens, UniProt O15392); assay: Survivin level by Western blot in prostate cancer cells; settings: C4-2 and PC-3 cells
Experimental: IAP family member degradation assay. For this experiment C4-2 or PC-3 cells were plated in a 10 cm dish at 1×10^6 cells per dish. 24 hours later the media was changed and cells were treated with DMO or LQZ-7-3. After 48 hours the cells were harvested, washed in PBS, and IAP family members level were evaluated using specific antibodies and Western Blotting.

survivin [4] = biological target: T1, survivin; assay: Proteasome inhibitors study (rescue of survivin loss); assay type: cell-based; design: we examined survivin expression level in C4-2 and PC-3 cells following 7I treatments; endogenous in cells; host or cells: PC-3, C4-2; settings: PC-3 and C4-2 cells
Experimental: Proteasome Inhibitors Study. For the proteasome inhibitor rescue experiment, PC3 and C4-2 cells were seeded in 10-cm dishes at 8×10^5 cells/dish and cultured for 48 hours followed by replacement with fresh media containing DMSO control, 7 μmol/L MG132, or 70 nmol/L bortezomib and incubation for 2 hours. LQZ-7-3 was then added to the culture to final concentrations of 10 uM respectively and incubated for additional 24 hours. The cells were then harvested used for Western blot analysis of survivin.
To determine if 7I-induced survivin degradation occurs in proteasome, we performed a rescue experiment by pre-treating cells using proteasome inhibitors MG132 and bortezomib for 1 hr prior to 7I treatment. […] Thus, 7I likely induces survivin degradation via proteasome. 7I induces apoptosis. It has been shown previously that depleting survivin or inhibiting survivin using dominant negative forms of survivin cause spontaneous apoptosis in cancer cells (ref) and that the parent compound LQZ-7 also induces apoptosis. We next tested if 7I would induce apoptosis by inhibiting survivin. For this purpose, we first performed Western blot analysis of cleaved caspase 3 in C4-2 and PC-3 cells following 7I treatments. […] We next determined if 7I is active in suppressing tumor growth in vivo using a PC-3 xenograft model. […]

cleaved caspase 3 = assay: Western blot analysis of cleaved caspase 3; assay type: cell-based, human; settings: C4-2 and PC-3 cells
Excerpt: To determine if 7I-induced survivin degradation occurs in proteasome, we performed a rescue experiment by pre-treating cells using proteasome inhibitors MG132 and bortezomib for 1 hr prior to 7I treatment. […] Thus, 7I likely induces survivin degradation via proteasome. 7I induces apoptosis. It has been shown previously that depleting survivin or inhibiting survivin using dominant negative forms of survivin cause spontaneous apoptosis in cancer cells (ref) and that the parent compound LQZ-7 also induces apoptosis. We next tested if 7I would induce apoptosis by inhibiting survivin. For this purpose, we first performed Western blot analysis of cleaved caspase 3 in C4-2 and PC-3 cells following 7I treatments. […] We also performed annexin V staining of C4-2 and PC-3 cells as another indicator of apoptosis following 7I treatments. […] 7I inhibits growth of PC-3 xenograft tumors by inhibiting survivin. We next determined if 7I is active in suppressing tumor growth in vivo using a PC-3 xenograft model. […] The xenograft tumors in the 7I-treatment group trended to be smaller and pale in color than the control group (FIG. 16C-D). Thus, 7I may be effective in inhibiting tumor growth with little toxicity.
Apoptosis Studies. To determine if LQZ-7F-1 also induces apoptosis of cancer cells Flow Cytometry with Annexin V staining was performed in coordination with the Flow Cytometry Core. […]

C4-2 cells [5] = assay: Apoptosis assay (Annexin V flow cytometry); assay type: cell-based, human; settings: 3 μM
Experimental: (§3) Survivin Cycloheximide Half-Life Assay. The effect of LQZ-7-3 on survivin half-life was performed as previously described. Briefly, PC-3 or C4-2 cells were pretreated with 10 μmol/L cycloheximide for 1 hour followed by incubation with or without LQZ-7-3 10 uM for different times (0-6 hours). The cells were then harvested for Western Blot analysis for survivin. Apoptosis Assay. The apoptosis assay was performed as detailed in the Anenxin V-FITC kit from BioVision. Briefly, apoptosis was induced by treatment with LQZ-7-3 and cells were collected by centrifugation. Cells were resuspended in 500 ul of 1× binding buffer and 5 ul of annexin V-FITC and 5 ul of propidium iodide (50 ug/ml) was added to the cells. The cells were incubated at room temperature for 5 minutes in the dark then subjected to quantification by flow cytometry.

PC-3 cells [6] = assay: Apoptosis assay (Annexin V flow cytometry); assay type: cell-based, human; settings: 3 μM
Experimental: as §3

[7] = test system: stable C4-2 cells over expressing survivin; assay: Methylene blue assay in survivin overexpression cells; assay type: cell-based; settings: Homo sapiens; stable C4-2 clone, HA-tagged survivin; read-out: IC50, survivin over-expression
Experimental: as §1
(§4) Survivin overexpression decreases cellular sensitivity to 7I. To corroborate above findings and to further investigate 7I inhibition of cancer cell survival via survivin, we generated a stable C4-2 clone with overexpression of HA-tagged survivin (FIG. 13D) and tested the effect of survivin over-expression on 7I cytotoxicity. […] Thus, 7I likely works via inhibiting survivin.
(§5) LQZ-7F-1 Cytotoxicity in Survivin Overexpression Cells. To determine if survivin overexpressing cells have a decreased sensitivity to LQZ-7F-1, C4-2 survivin stable overexpressing cells were once again used in a cell cytotoxicity assay.

[8] = test system: p53-large T antigen dimerization; assay: Mammalian two hybrid assay, specificity control; settings: same two hybrid assay
Experimental: (§8) Survivin mammalian two hybrid assay. The mammalian two hybrid assay was performed utilizing the ClonTech Matchmaker Mammalian Two Hybrid Assay kit [13]. Briefly, the coding region (˜400 bp) of survivin was cloned in to two different plasmids, the pM plasmid containing the GAL4-DNA Binding Domain and the pVP16 plasmid containing an activation domain. […] These two plasmids (0.45 ug/well) along with the pGSEAP reporter plasmid (0.09 ug/well) and firefly luciferase plasmid (30 ng/well) were co-transfected in to 1×10^5 Du145 cells per well in a 12 well plate. Each condition was tested in triplicate. […] SEAP was detected utilizing the Takara ClonTech SEAP Great Escape chemiluminescence assay kit 2.0 and cells were lysed and luciferase was measured to control for transfection efficiency.

C4-2 vector cells = assay: Methylene blue assay in vector control cells; assay type: cell-based; settings: Homo sapiens; C4-2 vector control; read-out: IC50, vector-transfect control clone
Experimental: as §1, §4, §5

survivin dimerization = survivin dimerization (Homo sapiens, UniProt O15392); assay: Survivin mammalian two hybrid assay (SEAP reporter, Du145 cells); assay type: cell-based; settings: 24 hours treatment
Experimental: as §8
Dimerization of survivin activates the expression of Secreted Embryonic Alkaline Phosphatase (SEAP) reporter gene, which can be monitored.

PC-3 xenograft tumors = assay: PC-3 xenograft model; assay type: in vivo, NSG male mice
Experimental: PC-3 Xenograft Model. For the in vivo efficacy study, 3×10^6 PC-3 cells in media were implanted in to the hind flanks of 6 week old NSG male mice. After the tumor volume reached approximately […] in volume, the mice were randomized in to two groups (5 mice/group). The mice were either given 200 uL vehicle (90% corn oil/10% DMSO) or LQZ-7-3 100 mg/kg vial oral gavage every other day for a total of ten treatments. Before each treatment mouse bodyweight and tumor volume by caliper was measured. At the end of the study mice were sacrificed, and tumors were extracted for western blot analysis and […] staining of survivin.

Solubility in corn oil = assay type: physicochemical
CIAP1 = CIAP1 (Homo sapiens, UniProt Q13490); assay: IAP family member degradation assay; assay type: cell-based; settings: C4-2 and PC-3 cells, Western blot
Experimental: (§6) Survivin mammalian two hybrid assay. […] Each condition was tested in triplicate. […] IAP family member degradation assay.
(§7) Selectivity of 7I. […] To ensure 7I is selective to survivin, we tested its effect on other members of the IAP family by taking advantage of its induction of target loss. For this purpose, we performed Western blot analysis to determine the expression level of other IAPs including XIAP, CIAP1, and CIAP2 in addition to survivin following 7I treatment of C4-2 and PC-3 cells. […] However, it had no effect on the expression of XIAP, CIAP1, and CIAP2. Thus, 7I may be selective to its intended target survivin. 7I induces survivin degradation in a proteasome-dependent manner. […] Because 7I inhibited survivin dimerization as shown above, we hypothesized that 7I will also induce survivin degradation. To test this hypothesis, we examined survivin expression level in C4-2 and PC-3 cells following 7I treatments. […] We next performed a cycloheximide-chase experiment following 7I treatment to determine the half-life of survivin. […] Thus, 7I induces survivin degradation in both cell lines.

CIAP2 = CIAP2 (Homo sapiens, UniProt Q13489); assay: IAP family member degradation assay; assay type: cell-based; settings: C4-2 and PC-3 cells, Western blot
Experimental: as §6, §7

XIAP = XIAP (Homo sapiens, UniProt P98170); assay: IAP family member degradation assay; assay type: cell-based; settings: C4-2 and PC-3 cells, Western blot
Experimental: as §6, §7

[9] = read-out: IC50 against C4-2 cells
[10] = read-out: IC50 against PC-3 cells

T1 sequence (O15392 whole entry): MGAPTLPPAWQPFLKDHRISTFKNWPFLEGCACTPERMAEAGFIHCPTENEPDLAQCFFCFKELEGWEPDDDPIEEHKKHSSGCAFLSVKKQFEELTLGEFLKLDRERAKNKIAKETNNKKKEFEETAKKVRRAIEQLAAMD
Sequence of survivin dimerization (O15392 whole entry): as above
Sequence of CIAP2 (Q13489 whole entry): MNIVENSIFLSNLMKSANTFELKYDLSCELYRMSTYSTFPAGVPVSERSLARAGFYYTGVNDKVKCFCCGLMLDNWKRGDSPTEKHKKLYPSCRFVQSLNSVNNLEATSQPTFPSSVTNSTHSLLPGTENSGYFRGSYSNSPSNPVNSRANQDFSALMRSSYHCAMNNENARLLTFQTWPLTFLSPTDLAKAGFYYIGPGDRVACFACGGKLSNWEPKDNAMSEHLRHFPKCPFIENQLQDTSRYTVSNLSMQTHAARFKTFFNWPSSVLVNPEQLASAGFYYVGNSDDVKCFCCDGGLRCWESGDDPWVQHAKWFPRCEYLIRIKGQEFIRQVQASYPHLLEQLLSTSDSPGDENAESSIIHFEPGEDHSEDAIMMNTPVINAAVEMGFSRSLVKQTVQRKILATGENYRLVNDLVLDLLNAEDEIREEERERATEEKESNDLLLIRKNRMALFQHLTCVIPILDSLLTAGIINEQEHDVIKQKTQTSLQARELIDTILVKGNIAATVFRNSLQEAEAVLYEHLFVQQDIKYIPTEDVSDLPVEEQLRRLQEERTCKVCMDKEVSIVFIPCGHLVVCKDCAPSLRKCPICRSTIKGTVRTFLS
Sequence of XIAP (P98170 whole entry): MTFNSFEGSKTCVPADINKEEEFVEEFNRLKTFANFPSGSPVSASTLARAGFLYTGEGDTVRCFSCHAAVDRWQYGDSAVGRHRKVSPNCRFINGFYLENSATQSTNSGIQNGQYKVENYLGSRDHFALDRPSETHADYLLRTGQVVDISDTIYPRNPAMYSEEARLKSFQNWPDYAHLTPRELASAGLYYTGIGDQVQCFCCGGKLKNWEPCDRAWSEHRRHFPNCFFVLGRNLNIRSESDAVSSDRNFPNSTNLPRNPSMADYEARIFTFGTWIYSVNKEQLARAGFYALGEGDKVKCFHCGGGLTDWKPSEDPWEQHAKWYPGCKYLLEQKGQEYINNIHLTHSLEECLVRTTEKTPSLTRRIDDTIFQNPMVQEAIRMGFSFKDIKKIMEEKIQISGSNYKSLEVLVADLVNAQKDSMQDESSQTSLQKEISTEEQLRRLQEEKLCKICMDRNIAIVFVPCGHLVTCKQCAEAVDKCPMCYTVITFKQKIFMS
Sequence of CIAP1 (Q13490 whole entry): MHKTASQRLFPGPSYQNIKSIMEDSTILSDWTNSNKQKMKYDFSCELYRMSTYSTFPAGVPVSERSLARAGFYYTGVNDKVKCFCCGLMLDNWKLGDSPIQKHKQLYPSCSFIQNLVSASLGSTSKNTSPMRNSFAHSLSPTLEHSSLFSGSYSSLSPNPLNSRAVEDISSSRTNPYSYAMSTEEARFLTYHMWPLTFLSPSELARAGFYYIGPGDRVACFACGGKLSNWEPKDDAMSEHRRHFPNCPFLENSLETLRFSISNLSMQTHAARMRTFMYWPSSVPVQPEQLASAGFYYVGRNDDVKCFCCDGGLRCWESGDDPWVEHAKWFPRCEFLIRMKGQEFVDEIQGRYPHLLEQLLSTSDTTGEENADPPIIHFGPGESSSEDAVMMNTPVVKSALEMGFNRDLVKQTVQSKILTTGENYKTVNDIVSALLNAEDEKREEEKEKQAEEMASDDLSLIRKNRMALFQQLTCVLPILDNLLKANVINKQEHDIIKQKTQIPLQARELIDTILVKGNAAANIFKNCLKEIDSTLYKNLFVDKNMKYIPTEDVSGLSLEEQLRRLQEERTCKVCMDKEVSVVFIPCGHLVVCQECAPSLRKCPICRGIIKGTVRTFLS

Structure (SMILES): Cc1cccc(Nc2nc3nonc3nc2N/N=C/c2ccc(-c3ccc(Cl)c([N+](=O)[O-])c3)o2)c1C [LQZ-7A]
- IC50 (PC-3): 7.2 ± 2.7 µM

Structure (SMILES): CCOC(=O)c1ccc(Nc2nc3nonc3nc2N/N=C/c2c[nH]nc2-c2ccccc2)cc1 [LQZ-7C]
- IC50 (PC-3): 3.5 µM

Structure (SMILES): O=C(Nc1nc2ccccc2nc1Nc1ccc(F)cc1)c1ccc2c(c1)OCO2 [LQZ-7G, N-(3-((4-fluorophenyl)amino)quinoxalin-2-yl)benzo[d][1,3]dioxole-5-carboxamide]
- IC50 (C4-2 cells [1]; read-out: IC50 (μm) C4-2): 14.3 µM
- IC50 (PC-3 cells [2]; read-out: IC50 (μm) PC-3): 20.7 µM

Structure (SMILES): Fc1ccc(Nc2nc3ccccc3nc2Nc2ccc(F)cc2)cc1 [LQZ-7I, N^2,N^3-bis(4-fluorophenyl)quinoxaline-2,3-diamine]
- survivin expression level after treatment (survivin [3]): reduced; also recorded: time-dependent survivin loss
- compound-induced survivin loss after pretreatment with proteasome inhibitors MG132 and bortezomib (survivin [4]): significantly reversed
- cleaved caspase 3 levels (cleaved caspase 3): induced cleavage of caspase 3 in a dose dependent manner
- apoptosis (annexin V staining) (C4-2 cells [5]): ~48%
- apoptosis (annexin V staining) (PC-3 cells [6]): ~39%
- IC50 [7]: ~7 µM
- IC50 (C4-2 cells [1]; read-out: IC50 (μm) C4-2): 3.1 µM
- IC50 (C4-2 cells [1]; [9]): 3.1 µM
- IC50 (PC-3 cells [2]; read-out: IC50 (μm) PC-3): 4.8 µM
- IC50 (PC-3 cells [2]; [10]): 4.8 µM
- p53-large T antigen dimerization [8]: no effect
- IC50 (C4-2 vector cells): ~2 µM
- SEAP reporter expression / survivin dimerization (survivin dimerization): significantly decreased; also recorded: significantly inhibited
- body weight (PC-3 xenograft tumors; 100 mg/kg oral gavage): lacking changes
- wet weight of major organs at the end of the study (PC-3 xenograft tumors; 100 mg/kg oral gavage): lacking changes
- tumor growth (PC-3 xenograft tumors; 100 mg/kg oral gavage every other day, ten treatments): significantly suppressed
- survivin expression in xenograft tumors (PC-3 xenograft tumors; Western blot and immunofluorescence staining, treatment vs control group): drastically reduced
- solubility in corn oil (Solubility in corn oil): soluble
- expression of CIAP1 (CIAP1): no effect
- expression of CIAP2 (CIAP2): no effect
- expression of XIAP (XIAP): no effect

Structure (SMILES): O=C(Nc1nc2ccccc2nc1Nc1ccc(F)cc1)c1ccccc1 [LQZ-7H, N-(3-((4-fluorophenyl)amino)quinoxalin-2-yl)benzamide]
- IC50 (C4-2 cells [1]; read-out: IC50 (μm) C4-2): 12.7 µM
- IC50 (PC-3 cells [2]; read-out: IC50 (μm) PC-3): 19.7 µM

Structure (SMILES): Cc1cccc(Nc2nc3nonc3nc2N/N=C/c2ccc(-c3cccc(C(=O)O)c3)o2)c1C [LQZ-7]
- IC50 (C4-2 cells [1]; read-out: IC50 (μm) C4-2): 9.1 µM
- IC50 (C4-2 cells [1]; [9]): 9.1 µM
- IC50 (PC-3 cells [2]; read-out: IC50 (μm) PC-3): 8.1 µM
- IC50 (PC-3 cells [2]; [10]): 8.1 µM
- p53-large T antigen dimerization [8]: no effect

Structure (SMILES): Cc1cccc(Nc2nc3nonc3nc2N/N=C/c2cc3c(cc2[N+](=O)[O-])OCO3)c1C [LQZ-7D]
- IC50 (PC-3): 2.6 ± 0.3 µM

Structure (SMILES): Cc1ccc(-c2ccc(/C=N/Nc3nc4nonc4nc3Nc3cccc(Br)c3)o2)cc1Cl [LQZ-7B]
- IC50 (PC-3): 3.3 ± 0.2 µM

Structure (SMILES): Cc1cccc(Nc2nc3ccccc3nc2Nc2cccc(C)c2C)c1C [LQZ-7J, N^2,N^3-bis(2,3-dimethylphenyl)quinoxaline-2,3-diamine]
- IC50 (C4-2 cells [1]; read-out: IC50 (μm) C4-2): 17.6 µM
- IC50 (PC-3 cells [2]; read-out: IC50 (μm) PC-3): 24.8 µM
